Data published in ChEMBL document CHEMBL3351327, “Synthesis of some novel hydrazone and 2-pyrazoline derivatives: monoamine oxidase inhibitory activities and docking studies” (Bioorg Med Chem Lett, 2014).

Assays:
[1] = target: T1, Amine oxidase [flavin-containing] B (Homo sapiens, UniProt P27338); experiment: biochemical; format: cell-based
T1 sequence (P27338 whole entry): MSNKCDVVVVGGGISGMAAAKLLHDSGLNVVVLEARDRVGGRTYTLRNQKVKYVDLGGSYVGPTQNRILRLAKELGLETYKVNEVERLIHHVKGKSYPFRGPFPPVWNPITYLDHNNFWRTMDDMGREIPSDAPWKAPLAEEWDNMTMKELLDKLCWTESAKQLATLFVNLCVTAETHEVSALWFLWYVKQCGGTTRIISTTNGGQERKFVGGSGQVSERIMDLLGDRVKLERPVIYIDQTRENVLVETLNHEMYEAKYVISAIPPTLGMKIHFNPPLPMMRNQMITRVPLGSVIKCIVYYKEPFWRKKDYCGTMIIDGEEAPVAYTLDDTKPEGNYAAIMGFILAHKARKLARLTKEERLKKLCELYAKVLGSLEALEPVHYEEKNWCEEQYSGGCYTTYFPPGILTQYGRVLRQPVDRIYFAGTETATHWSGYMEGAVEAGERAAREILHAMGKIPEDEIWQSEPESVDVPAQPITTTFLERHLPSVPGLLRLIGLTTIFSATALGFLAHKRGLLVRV
Description: Inhibition of human MAOB expressed in baculovirus-infected BTI insect cells assessed as H2O2 production by resorufin dye based fluorimetric method

[2] = target: T2, Amine oxidase [flavin-containing] A (Homo sapiens, UniProt P21397); experiment: biochemical; format: cell-based
T2 sequence (P21397 whole entry): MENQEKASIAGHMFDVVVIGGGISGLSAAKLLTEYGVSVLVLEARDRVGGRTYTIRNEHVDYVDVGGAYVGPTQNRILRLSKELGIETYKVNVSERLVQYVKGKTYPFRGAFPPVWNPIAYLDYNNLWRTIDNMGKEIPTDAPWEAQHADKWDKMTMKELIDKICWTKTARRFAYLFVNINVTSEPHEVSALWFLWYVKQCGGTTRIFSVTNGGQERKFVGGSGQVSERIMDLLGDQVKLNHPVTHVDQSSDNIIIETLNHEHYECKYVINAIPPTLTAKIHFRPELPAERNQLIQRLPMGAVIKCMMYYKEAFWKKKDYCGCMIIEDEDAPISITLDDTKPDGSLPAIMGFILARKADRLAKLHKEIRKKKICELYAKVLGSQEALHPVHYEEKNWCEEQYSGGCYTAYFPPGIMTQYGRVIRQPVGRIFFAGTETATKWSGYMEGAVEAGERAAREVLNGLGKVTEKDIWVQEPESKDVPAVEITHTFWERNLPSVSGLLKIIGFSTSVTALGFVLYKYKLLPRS
Description: Inhibition of human MAOA expressed in baculovirus-infected BTI insect cells assessed as H2O2 production by resorufin dye based fluorimetric method

| Compound | Ki [1] [µM] | Ki [2] [µM] |
| --- | --- | --- |
| COc1ccc(/C=C/C(=N\NC(=O)c2ccc(OC)cc2)c2ccc(Br)cc2)cc1 | 0.98 | 0.045 |
| Cc1ccc([C@H]2CC(c3cc(Br)ccc3O)=NN2C(=O)c2cccs2)cc1 | 1640 | 0.13 |
| COc1ccc(/C=C/C(=O)c2ccc(Br)cc2)cc1 | 5.55 | 0.1 |
| Cc1ccc(/C=C/C(=N/NC(=O)c2snnc2C)c2ccc(Cl)cc2)cc1 | 0.76 | 0.012 |
| Cc1ccc(/C=C/C(=O)c2cc(Br)ccc2O)cc1 | 4.22 | 0.13 |
| COc1ccc(C(=O)N2N=C(c3cc(Br)ccc3O)C[C@@H]2c2ccc(C)cc2)cc1 |  | 79.2 |
| Cc1ccc([C@H]2CC(c3cc(Cl)ccc3O)=NN2C(=O)c2snnc2C)cc1 | 72 | 0.24 |
| Cc1ccc([C@H]2CC(c3cc(Br)ccc3O)=NN2C(=O)c2ccco2)cc1 | 14 | 0.45 |
| Cc1ccc([C@H]2CC(c3cc(Br)ccc3O)=NN2C(=O)c2ccccc2)cc1 |  | 0.04 |
| Cc1ccc(/C=C/C(=N\NC(=O)c2cccs2)c2ccc(Cl)cc2)cc1 | 0.52 | 0.034 |
| Cc1cccc(/C=C/C(=O)c2ccc(Cl)cc2)c1 | 7 | 0.16 |
| COc1ccc(C(=O)/C=C/c2ccc(C)cc2)cc1 | 14.9 | 0.56 |
| Cc1cccc(/C=C/C(=N/NC(=O)c2snnc2C)c2ccc(Cl)cc2)c1 | 0.99 | 0.01 |
| COc1ccc(/C=C/C(=O)c2ccc(Cl)cc2)cc1 | 13.9 | 0.24 |
| Cc1ccc(/C=C/C(=O)c2ccc(O)cc2)cc1 |  | 0.6 |
| Cc1ccc([C@H]2CC(c3cc(Br)ccc3O)=NN2C(=O)c2ccncc2)cc1 | 2 | 0.18 |
| COc1ccc(C(=O)N2N=C(c3cc(Cl)ccc3O)C[C@@H]2c2ccc(C)cc2)cc1 |  | 4.67 |
| COc1ccc(C(/C=C/c2ccc(C)cc2)=N\NC(=O)c2snnc2C)cc1 | 0.9 | 0.041 |
| COc1ccc(/C=C/C(=N\NC(=O)c2ccc(OC)cc2)c2ccc(Cl)cc2)cc1 |  | 0.034 |
| Cc1ccc([C@H]2CC(c3cc(Cl)ccc3O)=NN2C(=O)c2ccccc2)cc1 | 0.75 | 0.012 |
| COc1ccc(/C=C/C(=N/NC(=O)c2snnc2C)c2ccc(Cl)cc2)cc1 | 1.05 | 0.012 |
| Cc1ccc(/C=C/C(=N/NC(=O)c2snnc2C)c2ccc(O)cc2)cc1 | 1.48 | 0.01 |
| Cc1ccc([C@H]2CC(c3cc(Cl)ccc3O)=NN2C(=O)c2ccncc2)cc1 | 5.23 | 0.6 |
| Cc1ccc([C@H]2CC(c3cc(Cl)ccc3O)=NN2C(=O)c2ccco2)cc1 | 0.99 | 0.11 |
| COc1ccc(/C=C/C(=N\NC(=O)c2ccco2)c2ccc(Br)cc2)cc1 | 0.7 | 0.091 |
| Cc1ccc(/C=C/C(=O)c2ccc(Cl)cc2)cc1 | 7.7 | 0.24 |
| Cc1ccc(/C=C/C(=O)c2cc(Cl)ccc2O)cc1 | 7.22 | 0.14 |
